According to patent publication US20250281449A1, “NITROGEN-CONTAINING ANALOGS OF SALINOMYCIN FOR USE IN MULTIPLE MYELOMA (MM)” (Centre National de la Recherche Scientifique, priority 2021, published 2025):

Legend:
[1] = test system: non-MM cells; test: Assay on primary samples of patients, non-MM cells (flow cytometry); assay type: cell-based, human; details: primary samples of patients, n=5
Description: (§1) Primary MM cells were treated with Ironomycin (A) or AM-23 (B) and incubated during 96H with IL-6. The toxicity on MM cells and non-MM cells was analyzed by flow cytometry and expressed in % of control.
(§2) Bone marrow samples were collected after patients' written informed consent in accordance with the Declaration of Helsinki and institutional research board approval from Montpellier University hospital. Cells are obtained from […] of 5 patients with MM. Cells are obtained by density gradient separation and qualified by Flow cytometry.
(§3) Cells are cultured in Gibco® RPMI-1640 (Glutamax) medium (#6187-010) with 10% FBS at a density of 0.5×10^6 Cell/mL with 2 ng/mL of interleukin-6. Cells are seeded 24H after thawing and treated with various compounds during 72H.
(§4) Total cells were counted with trypan blue and stained with the panel CD38-APC, CD138-PE (Beckman coulter) and analyzed by flow cytometry (Fortessa cytometer, BD Pharmigen). Tumorous MM cells were gated on CD38+ and CD138+.

[2] = test system: MM cell lines; test: Cell growth inhibition in panel of MM cell lines; assay type: cell-based, human; details: 96H
Description: (§5) The panel of 17 HMCL cell lines were incubated with increasing concentrations of Ironomycin (A), AM23 (B) or vehicle for 96H.
(§6) HMCL cell lines were cultured for 4 days in 96-well flat-bottom microtiter plates in RPMI 1640 medium or DMEM medium, 10% or 20% FCS (control medium) in the presence of various compounds. The number of viable cells in culture was determined using the Cell Titer-Glo Luminescent Cell Viability Assay from Promega, Madison, WI, USA using a Centro LB 960 luminometer (Berthold Technologies, Bad Wildbad, Germany).
(§7) This test is based on quantitation of the intracellular ATP present, which signals the presence of metabolically active cells. Data are expressed as the mean percentage of six replicates, normalized to the untreated control.
The therapeutic interest of iron metabolism inhibitors AM5 (Ironomycin) and AM23 was further investigated using large collection of 18 MM cell lines (Moreaux J et al. Haematologica 2011; Vikova V et al. Theranostics 2019). The IC50 of Ironomycin and AM23 respectively are illustrated in the Table 5 hereunder: […]

[3] = test system: primary MM cells; test: Assay on primary MM cells of patients (flow cytometry); assay type: cell-based, human; details: n=5, with IL-6
Description: as §1, §2, §3, §4

[4] = test system: OPM-2; test: Cell viability assay (Cell Titer-Glo), HMCL; assay type: cell-based; details: Homo sapiens, OPM-2, 96 h
Description: as §5, §6, §7

[5] = test system: XG12; test: Cell viability assay (Cell Titer-Glo), HMCL; assay type: cell-based; details: Homo sapiens, 96 h
Description: as §5, §6, §7

[6] = test system: XG-1; test: Cell viability assay (Cell Titer-Glo), HMCL; assay type: cell-based; details: Homo sapiens, 96 h
Description: as §5, §6, §7

[7] = test system: XG6; test: Cell viability assay (Cell Titer-Glo), HMCL; assay type: cell-based; details: Homo sapiens, XG6, 96 h
Description: as §5, §6, §7

[8] = test system: XG20; test: Cell viability assay (Cell Titer-Glo), HMCL; assay type: cell-based; details: Homo sapiens, 96 h
Description: as §5, §6, §7

[9] = test system: XG-7; test: Cell viability assay (Cell Titer-Glo), HMCL; assay type: cell-based; details: Homo sapiens, 96 h
Description: as §5, §6, §7

[10] = test system: MOLP-8; test: Cell viability assay (Cell Titer-Glo), HMCL; assay type: cell-based; details: Homo sapiens, MOLP-8, 96 h
Description: as §5, §6, §7

[11] = test system: XG24; test: Cell viability assay (Cell Titer-Glo), HMCL; assay type: cell-based; details: Homo sapiens, 96 h
Description: as §5, §6, §7

[12] = test system: XG28; test: Cell viability assay (Cell Titer-Glo), HMCL; assay type: cell-based; details: Homo sapiens, 96 h
Description: as §5, §6, §7

[13] = test system: XG21; test: Cell viability assay (Cell Titer-Glo), HMCL; assay type: cell-based; details: Homo sapiens, 96 h
Description: as §5, §6, §7

CC[C@@H](C(=O)[C@@H](C)[C@@H](O)[C@H](C)[C@@H]1O[C@@H]([C@@H](CC)C(=O)O)CC[C@@H]1C)[C@H]1O[C@]2(C=C[C@@H](NC3CC3)[C@]3(CC[C@@](C)([C@H]4CC[C@](O)(CC)[C@H](C)O4)O3)O2)[C@H](C)C[C@@H]1C [AM23]
toxicity for non-tumoral cells [1]: without significant toxicity
cell growth inhibition / toxicity on MM cell lines [2]: validated the toxicity
cell growth inhibition / toxicity on MM cell lines ([2]; listed as AM-23): kill MM cells with nanomolar concentration
toxicity on primary MM cells of patients [3]: validated the therapeutic interest
IC50 [4]: 1.4 nM
IC50 [5]: 0.8 nM
IC50 [6]: 21.1 nM
IC50 [7]: 3.8 nM
IC50 [8]: 154 nM
IC50 [9]: 11.8 nM
IC50 [10]: 13 nM
IC50 [11]: 8.8 nM
IC50 [12]: 13 nM
IC50 [13]: 34.3 nM
